From patent US20210386792A1, “A METHOD FOR INCREASING POPULATION OF SPERMATOGONIAL STEM CELLS” (priority 2018, published 2021)

Assays:
TECs [1] = assay: TECs proliferation and apoptosis assays; format: cell-based, mouse; conditions: TECs in culture, busulfan 800 μM vs DMSO
Description: TECs Proliferation and Apoptosis Assays
5×10^3 testicular ECs per well were plated on 8-chamber slide (LabteK) coated with 0.1% gelatin. Busulfan (800 μM) or DMSO were added to each well 24 hours after seeding and cultured for 72 or 96 hours. 10 μM BrdU (BD Pharmingen™) was added to media 72 hours after busulfan treatment, then incubated for 2 hours. Samples were stained with anti-BrdU (1:50; Invitrogen), anti-γ-H2AX (1:400; Millipore) and anti-cleaved caspase 3 (1:400; Cell Signaling). BrdU^+ cells in 10 random high-powered fields were counted and statistics were analyzed using Graph Pad Prism. Each condition was performed in triplicate.

TECs [2] = assay: Microvessel density (CD31 immunostaining) in testes sections from busulfan-treated mice; format: in vivo, mouse; conditions: wild-type mice, 5 weeks after busulfan vs vehicle
Description: Testes were dissected from male mice were cryoprotected overnight in 20% (wt vol^−1) sucrose then frozen in OCT (Tissue-Tek). Testis sections (10 or 30 m) were blocked (5% normal goat serum and 0.1% bovine serum albumin in 0.1% PBS-T) for 1 hour and washed in 0.1% PBS-T. Primary antibodies: anti-CD31 rat-pAb (1:50; BD science, Cat: 550274), anti-PLZF rabbit-polyclonal Ab (1:50; Santa Cruz, Cat: 22839), anti-DDX4 rabbit pAb (1:200; Abcam, Cat: 13840), anti-Sox9 rabbit pAb (1:200; Millipore, Cat: ABE579), anti-GDNF rabbit polyclonal Ab (1:50; Santa Cruz, Cat: SC328) were diluted in blocking buffer and incubated for 2 hours at RT, then incubated with either anti-mouse Alexa 594 (1:1000, Thermo Fischer, Cat: A110323) or anti-rabbit Alexa 488 (1:1000, Thermo Fischer, Cat: A32723) at RT for 30 minutes. Sections were stained with for 1 min to detect nuclei. […] Digital images were analyzed for the area and density of endothelial cell markers, germline stem cell markers and GDNF by counting 5 random 20× fields per testis section.
Mice were sacrificed 5-6 weeks after Busulfan treatment and tissues were fixed in paraformaldehyde overnight and then embedded in paraffin. […] After all cross sectional areas were counted, the field was randomly moved and all cross-sectional tubules counted in that field. This was continuing until the 10-20 tubules were counted per slide. […]

GDNF = assay: Western blot of GDNF expression in whole testis lysates; format: in vivo, mouse; conditions: 5 weeks after busulfan vs PBS
Description: Testes harvested from vehicle or busulfan treated-wild type mice were homogenized in RIPA buffer and protein concentration quantified by the BioRad DC Protein Assay. Twenty-five ug of protein per sample were separated by SDS-PAGE, probed with anti-GDNF rabbit polyclonal antibody (1:500; Santa Cruz, Cat: 13147) or anti-cleaved Caspase 3 rabbit polyclonal antibody (1:1000; Cell Signaling, Cat: 9664) and detected by chemiluminescence (ECL, Amersham). Blots were stripped and re-probed with β-actin as a loading control. See Supplementary material for uncropped blots.
FIG. 1. a. Quantication of Gdnf mRNA in Sertoli cells and TECs, and GDNF levels by ELISA in conditioned media from Sertoli cells or TECs without or with FGF-2 (20 ngml-1) treatment for 3 days. b. Murine GFP+Thy1.2+SSCs were co-cultured with TECs or testicular cells depleted of CD31+ TECs but containing all other cell populations in the testes. After 3 weeks, SSC colonies were absent in CD31-depleted testicular cell co-cultures with Sertoli and PTM cells present, while a signicant number of GFP+ Thy1.2+ SSC colonies were present in co-cultures with TECs alone. c. Immunouorescence staining for CD31 (for ECs) on testis sections from wildtype mice 5 weeks after vehicle or busulfan treatment. […] Quantification of MVD and vessel length is shown on the right, n=3.

SSCs [3] = assay: Restoration of spermatogenesis after busulfan exposure; format: in vivo, mouse; conditions: mice, no transplantation
SSCs [4] = conditions: mice, no transplantation; cited from earlier work

- microvessel density in testes sections (TECs [2]): significant decrease
- testis GDNF expression (GDNF): global decrease
- time required for restoration of murine spermatogenesis post-busulfan treatment (SSCs [3]): 6 months
SMILES: CS(=O)(=O)OCCCCOS(C)(=O)=O [busulfan]
- TEC apoptosis (cleaved caspase 3) (TECs [1]; 72 or 96 hours): increased apoptosis
- TEC proliferation (BrdU) (TECs [1]; 72 hours): decreased proliferation
- time to restoration of spermatogenesis following exposure to busulfan (SSCs [4]): 30-36 weeks
